“Also recorded” adds a separate entry of the source.
Columns and labels:
mice [1] = experiment: Behavioral despair; assay type: in vivo, mouse; conditions: forcibly immersed mice, i.p.
From the text: Half an hour after they have received CRL 41 153, groups of 6 mice are placed in a beaker filled with water to a height of 6 cm. The total period of immobility between the 2nd and 6th minutes following immersion is noted.

mice [2] = experiment: Interaction with barbital; assay type: in vivo, mouse; conditions: i.p., barbital 220 mg/kg
Protocol: Half an hour after the administration of CRL 41 153, groups of 10 mice receive an intraperitoneal injection of barbital (220 mg/kg).

mice [3] = experiment: Spontaneous motility; assay type: in vivo, mouse; conditions: i.p.
Protocol: 0.5 hour after they have received CRL 41 153, the mice (6 per dose, 12 control animals) are placed in an actimeter, where their motility is recorded for 30 minutes.

[4] = tested on: gravid White New Zealand female rabbits; experiment: Teratogenicity in gravid White New Zealand rabbits; assay type: in vivo, rabbit; conditions: day 5 to day 18 of gestation; for Affected foetuses, %: normal limit 1.5%
Protocol: The protocol used comprised administering to gravid White New Zealand female rabbits (weighing each about 2900-3000 grams before gestation) a daily dose of 0 (batch of control animals), 5,10 or 50 mg/kg of each product to be tested by gastrogavage from day 5 to day 18 of gestation, then carrying out a cesarean operation on day 29 of gestation in order to enumerate:
(i) the total number of foestuses, and
(ii) the total number of foestuses presenting at least one malformation.
To appreciate the results of such a protocol it must be noted that natural malformations may occur. Statistically, the percentage of foetuses presenting at least one malformation in any control batch of gravid White New Zealand female rabbits is lower than or equal to 1.5% with respect to the total number of foetuses.
To be precise in this protocol a malformation comprises at least one of the following cases: articular limb blocade, anorous foetus, deviated tail, shorter tail, skull deformation, exemcephalia.

rats [5] = experiment: Overall behavior and reactivities in rats; assay type: in vivo, rat; conditions: dose not stated
Protocol: (§1) In the neuropsychopharmacological study which follows, a solution of CRL 41 153 in distilled water (pH 1.5) was administered intraperitoneally in a volume of 20 ml/kg to male mice and 5 ml/kg to male rats.
(§2) Groups of three animals are observed before and then 0.25 hour, 0.50 hour, 1 hour, 2 hours, 3 hours and 24 hours after the administration of CRL 41 153.

mice [6] = experiment: Overall behavior and reactivities in mice; assay type: in vivo, mouse; conditions: dose not stated
Protocol: as §1, §2

mice [7] = experiment: Interaction with oxotremorine; assay type: in vivo, mouse; conditions: i.p.
Protocol: CRL 41 153 is administered to groups of 6 mice 0.5 hour before the intraperitoneal injection of 0.5 mg/kg of oxotremorine.

mice [8] = experiment: Motility reduced by hypoxic aggression; assay type: in vivo, mouse; conditions: i.p.
Protocol: Half an hour after they have received CRL 41 153, the mice (10 per dose, 20 control animals) are subjected to acute hypobaric anoxia [pressure reduction of 600 mm Hg (i.e. about 8×10^4 Pa) in 90 seconds; release of vacuum in 45 seconds] and are then placed in an actimeter, where their motility is recorded for 10 minutes.

mice [9] = experiment: Interaction with reserpine; assay type: in vivo, mouse; conditions: i.p.
Protocol: Four hours after the intraperitoneal injection of 2.5 mg/kg of reserpine, groups of 6 mice receive CRL 41 153.

rats [10] = experiment: Interaction with amphetamine; assay type: in vivo, rat; conditions: i.p.
Protocol: Amphetamine (2 mg/kg) is injected intraperitoneally into groups of 6 rats 30 minutes after the administration of CRL 41 153. […] 4 mg/kg and 16 mg/kg, CRL 41 153 potentiates the intensity and duration of the stereotypies induced by amphetamine.

CNS = experiment: Neuropsychopharmacological profile as a whole; assay type: in vivo, mice and rats
Protocol: as §1

dogs = experiment: Cardiovascular study in anesthetized dogs; assay type: in vivo, dog
Protocol: Two dogs (average weight: 14.1 kg), anesthetized with nembutal, receive CRL 41 194 by intraduodenal administration at successive doses of 0.1 mg/kg, 0.5 mg/kg, 1 mg/kg, 2.5 mg/kg, 5 mg/kg and 10 mg/kg (in solution in physiological solvent).
The blood pressure, the heart rate, the blood flow through the femoral artery, the blood flow through the vertebral artery and the rectal temperature are measured. The coloration of the skin and the coloration of the bile, collected by catheterization of the bile duct after ligature of the cystic duct, are observed.
4 dogs (average weight: 14 kg), anesthetized with nembutal, receive CRL 41 221 by intraduodenal administration at successive doses of 0.1 mg/kg, 0.5 mg/kg, 1 mg/kg, 2.5 mg/kg, 5 mg/kg and 10 mg/kg. The blood pressure, the heart rate, the blood flow through the femoral artery, the blood flow through the vertebral artery and the rectal temperature are measured. The coloration of the skin is observed.

[11] = pH of solutions in distilled water; assay type: physicochemical
Protocol: The neuropsychopharmacological study was undertaken according to the procedures described above for CRL 41 153, CRL 41 213 being adminstered intraperitoneally, in solution in distilled water, in a volume of 20 ml/kg to male mice and a volume of 5 ml/kg to male rats, and the pH of the injected solution varying with the concentration of CRL 41 213 according to the data given in Table II below.

mice [12] = experiment: Motility reduced by habituation to the enclosure; assay type: in vivo, mouse; conditions: i.p.
Protocol: After they have stayed In the actimeters for 18 hours, (he mice (6 per dose, 12 control animals) receive CRL 41 153. They are immediately returned to their respective enclosures and, half an hour later, their motility is recorded for 30 minutes.

rats [13] = experiment: Interaction with apomorphine in rats; assay type: in vivo, rat; conditions: i.p.
Protocol: CRL 41 153 is administered to groups of 6 rats 0.5 hour before the subcutaneous injection of 0.5 mg/kg of apomorphine.

mice [14] = experiment: Interaction with apomorphine in mice; assay type: in vivo, mouse; conditions: i.p.
Protocol: Groups of 6 mice receive CRL 41 153 0.5 hour before the subcutaneous injection of 1 or 16 mg/kg of apomorphine.

[15] = anesthetized dogs, intraduodenal
[16] = 12.8 g/liter in distilled water
[17] = ≤0.05 g/liter in distilled water

CC(C(=O)c1ccc(N)cc1)N(C)C (centres unmarked) [CRL 41 233]
Period of immobility due to despair (mice [1]): a decrease in the period of immobility
Duration of the sleep induced by barbital (mice [2]): a decrease in the duration of the sleep induced by barbital
Spontaneous motor activity (mice [3]): an increase in the spontaneous motor activity of mice
Affected foetuses, number ([4]; 5 mg/kg daily): 1
Total foetuses (live) ([4]; 5 mg/kg daily): 89
Affected foetuses, % ([4]; 5 mg/kg daily): 1.12%
Affected foetuses, number ([4]; 10 mg/kg daily): 0
Total foetuses (live) ([4]; 10 mg/kg daily): 85
Affected foetuses, % ([4]; 10 mg/kg daily): 0%
Overall behavior: observed effects (summary) (rats [5]): excitation with hyperreactivity in mice and rats
Stereotype movements (summary) (rats [5]): the presence of stereotype movements in mice and rats
Overall behavior: observed effects (summary) (mice [6]): excitation with hyperreactivity in mice and rats
Stereotype movements (summary) (mice [6]): the presence of stereotype movements in mice and rats
Effect on hypothermic action of oxotremorine (mice [7]): antagonism of the hypothermia
Motor recovery of mice after hypobaric hypoxia (mice [8]): improvement in the motor recovery
Effect on hypothermia induced by reserpine (mice [9]): antagonism of the hypothermia
Effect on stereotypies induced by amphetamine (rats [10]): potentiation of the stereotypies
Antidepressant effects (overall) (CNS; conclusion of the tests): antidepressant and stimulant properties
Stimulant effects (overall) (CNS; conclusion of the tests): antidepressant and stimulant properties
Vasodilator (conclusion) (dogs): vasodiating properties; also recorded: vasodilating properties
Rectal temperature (dogs; anesthetized dogs): large increase in the rectal temperature
Femoral flow (dogs; [15]): increases the femoral and vertebral flows as from a dose of 5 mg/kg
Heart rate (dogs; [15]): the tachycardiac effect appearing at 10 mg/kg
Vertebral flow (dogs; [15]): increases the femoral and vertebral flows as from a dose of 5 mg/kg
pH ([11]; 0.1 g/liter in distilled water): 5.0
pH ([11]; 0.2 g/liter in distilled water): 4.5
pH ([11]; 0.4 g/liter in distilled water): 4.0
pH ([11]; 0.8 g/liter in distilled water): 3.5
pH ([11]; 1.6 g/liter in distilled water): 3.0
pH ([11]; 3.2 g/liter in distilled water): 2.5
pH ([11]; 6.4 g/liter in distilled water): 2.0
pH [11, 16]: 1.5
pH ([11]; 50 g/liter in distilled water): 1.0
pH [11, 17]: 5.5
Motor activity of mice accustomed to their enclosure (mice [12]): resumption in the motor activity of mice accustomed to their enclosure
Effect on stereotypies induced by apomorphine (rats [13]): potentiation of the stereotypies
Effect on hypothermia induced by apomorphine (mice [14]): antagonism of the hypothermia

CC(NC1CC1)C(=O)c1ccc(N)cc1 (centres unmarked) [CRL 41 246]
Period of immobility due to despair (mice [1]): a reduction in the period of immobility
Duration of the sleep induced by barbital (mice [2]): a reduction in the duration of the sleep induced by barbital
Spontaneous motor activity (mice [3]): an increase in the spontaneous motor activity of mice
Affected foetuses, number ([4]; 5 mg/kg daily): 1
Total foetuses (live) ([4]; 5 mg/kg daily): 89
Affected foetuses, % ([4]; 5 mg/kg daily): 1.12%
Affected foetuses, number ([4]; 10 mg/kg daily): 0
Total foetuses (live) ([4]; 10 mg/kg daily): 94
Affected foetuses, % ([4]; 10 mg/kg daily): 0%
Overall behavior: observed effects (summary) (rats [5]): excitation with hyperreactivity in mice and rats
Stereotype movements (summary) (rats [5]): the presence of stereotype movements in mice and rats
Overall behavior: observed effects (summary) (mice [6]): excitation with hyperreactivity in mice and rats
Stereotype movements (summary) (mice [6]): the presence of stereotype movements in mice and rats
Effect on hypothermic action of oxotremorine (mice [7]): antagonism of the hypothermia
Effect on trembling induced by oxotremorine (mice [7]): antagonism of the trembling induced by oxotremorine
Motor recovery of mice after hypobaric hypoxia (mice [8]): improvement in the motor recovery
Effect on hypothermia induced by reserpine (mice [9]): antagonism of the hypothermia
Effect on ptosis induced by reserpine (mice [9]): antagonism of the ptosis induced by reserpine
Effect on stereotypies induced by amphetamine (rats [10]): potentiation of the stereotypies
Antidepressant effects (overall) (CNS; conclusion of the tests): antidepressant effects
Stimulant effects (overall) (CNS; conclusion of the tests): stimulant effects
α-adrenergic stimulant effects (overall) (CNS; conclusion of the tests): α-adrenergic stimulant effects
Peripheral α-adrenergic signs (mydriasis, salivation, lacrimation, exophthalmos) (CNS; species and dose not stated): mydriasis; also recorded: salivation
Vasodilator (conclusion) (dogs): vasodiating properties
pH ([11]; 0.1 g/liter in distilled water): 5.0
pH ([11]; 0.4 g/liter in distilled water): 4.5
pH ([11]; 0.8 g/liter in distilled water): 4.0
pH ([11]; 1.6 g/liter in distilled water): 3.5
pH ([11]; 6.4 g/liter in distilled water): 3.0
pH [11, 16]: 2.5
pH [11, 17]: 5.5
Motor activity of mice accustomed to their enclosure (mice [12]): resumption in the motor activity of mice accustomed to their enclosure
Effect on stereotypies induced by apomorphine (rats [13]): potentiation of the stereotypies
Effect on hypothermia induced by apomorphine (mice [14]): antagonism of the hypothermia

From patent US4980377A, “1-(aminophenyl)-2-aminopropanone derivatives” (Laboratoire L. Lafon, priority 1984, dated 1990)
